Assay results reported in patent US20250346593A1, “IMIDAZO(1,2-1)PYRIDINE DERIVATIVES AS RIPK2 INHIBITORS” (Interline Therapeutics, Inc., priority 2022, published 2025).
Like-named read-outs stand apart in the source and are kept apart here.

Tests used:
[1] = system: NF-κB pathway (SEAP) in THP1-Dual cells; assay: THP-1 Dual cell SEAP assay (L18-MDP stimulated); type: cell-based; conditions: Homo sapiens, THP1-Dual, read-out: NFkB THP1 IC50
[2] = target: GST-RIPK2 fusion protein (human RIPK2 amino acids 1-310) (Homo sapiens (Human), UniProt O43353); assay: RIPK2 binding competition assay (TR-FRET, Tracer 199)
[3] = read-out: RIPK2 IC50, RIPK2 binding competition assay

GST-RIPK2 fusion protein (human RIPK2 amino acids 1-310), sequence (O43353 1-310): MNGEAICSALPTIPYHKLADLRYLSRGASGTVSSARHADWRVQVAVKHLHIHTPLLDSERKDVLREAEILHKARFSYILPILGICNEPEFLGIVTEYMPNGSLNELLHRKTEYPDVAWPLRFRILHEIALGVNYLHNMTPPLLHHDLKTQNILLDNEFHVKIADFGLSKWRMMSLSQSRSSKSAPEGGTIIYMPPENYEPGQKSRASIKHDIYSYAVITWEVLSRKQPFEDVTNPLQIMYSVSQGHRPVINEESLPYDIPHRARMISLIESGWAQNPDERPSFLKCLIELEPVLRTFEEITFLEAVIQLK

For COc1cc2ncc(-c3cnc(N)c(C#N)c3)n2cc1S(=O)(=O)C(C)(C)C [Example 23, 2-amino-5-(6-(tert-butylsulfonyl)-7-methoxyimidazo[1,2-a]pyridin-3-yl)nicotinonitrile], the IC50 [1] was greater than 1000 nM and the IC50 [2, 3] was greater than 20 nM.
For COc1cc(N)cc(-c2cnn3ccc(S(=O)(=O)C(C)(C)C)cc23)c1 [Example 24, 3-(5-(tert-butylsulfonyl)pyrazolo [1,5-a]pyridin-3-yl)-5-methoxyaniline], the IC50 [1] was greater than 1000 nM and the IC50 [2, 3] was greater than 20 nM.
For COc1ccc(-c2cnn3ccc(S(=O)(=O)C(C)(C)C)cc23)cc1N [Example 25, 5-(5-(tert-butylsulfonyl)pyrazolo [1,5-a]pyridin-3-yl)-2-methoxyaniline], the IC50 [1] was greater than 1000 nM and the IC50 [2, 3] was greater than 20 nM.
With CC(C)(C)S(=O)(=O)c1ccn2ncc(-c3ccc(N)nc3)c2c1 [Example 26, 5-(5-(tert-butylsulfonyl)pyrazolo [1,5-a]pyridin-3-yl)pyridin-2-amine] the IC50 [1] was greater than 1000 nM and the IC50 [2, 3] was greater than 20 nM.
In the case of COc1cc2ncc(-c3ccc(F)c(N)c3F)n2cc1S(=O)(=O)C(C)(C)C [Example 27, 3-(6-(tert-butylsulfonyl)-7-methoxyimidazo[1,2-a]pyridin-3-yl)-2,6-difluoroaniline], the IC50 [1] is reported as greater than 1000 nM and the IC50 [2] is reported as 2.5 to 20 nM.
Work on COc1cc2ncc(-c3ccc(OC)c(N)c3F)n2cc1S(=O)(=O)C(C)(C)C [Example 28, 3-(6-(tert-butylsulfonyl)-7-methoxyimidazo[1,2-a]pyridin-3-yl)-2-fluoro-6-methoxyaniline] yielded an IC50 [1] greater than 1000 nM and an IC50 [2] of 2.5 to 20 nM.
COc1cc2ncc(-c3cccc(N)c3F)n2cc1S(=O)(=O)C(C)(C)C [Example 29, 3-(6-(tert-butylsulfonyl)-7-methoxyimidazo[1,2-a]pyridin-3-yl)-2-fluoroaniline] was tested, and the IC50 [1] was greater than 1000 nM and the IC50 [2] was 2.5 to 20 nM.
Work on COc1cc2ncc(-c3cncc(N)c3)n2cc1S(=O)(=O)C(C)(C)C [Example 30, 5-(6-(tert-butylsulfonyl)-7-methoxyimidazo[1,2-a]pyridin-3-yl)pyridin-3-amine] yielded an IC50 [1] greater than 1000 nM and an IC50 [2, 3] greater than 20 nM.
COc1cc2ncc(-c3cnc(N)c(N)c3)n2cc1S(=O)(=O)C(C)(C)C [Example 31, 5-(6-(tert-butylsulfonyl)-7-methoxyimidazo[1,2-a]pyridin-3-yl)pyridine-2,3-diamine] was tested, and the IC50 [1] was greater than 1000 nM and the IC50 [2, 3] was greater than 20 nM.
For COc1cc2ncc(-c3cc(N)ccc3F)n2cc1S(=O)(=O)C(C)(C)C [Example 32, 3-(6-(tert-butylsulfonyl)-7-methoxyimidazo[1,2-a]pyridin-3-yl)-4-fluoroaniline], the IC50 [1] was greater than 1000 nM and the IC50 [2, 3] was greater than 20 nM.
In the case of CNc1cncc(-c2cnc3cc(OC)c(S(=O)(=O)C(C)(C)C)cn23)c1 [Example 34, 5-(6-(tert-butylsulfonyl)-7-methoxyimidazo[1,2-a]pyridin-3-yl)-N-methylpyridin-3-amine], the IC50 [1] is reported as greater than 1000 nM and the IC50 [2, 3] is reported as greater than 20 nM.
With COc1cc2ncc(-c3cc(N)c(C)c(F)c3)n2cc1S(=O)(=O)C(C)(C)C [Example 35, 5-(6-(tert-butylsulfonyl)-7-methoxyimidazo[1,2-a]pyridin-3-yl)-3-fluoro-2-methylaniline] the IC50 [1] was greater than 1000 nM and the IC50 [2, 3] was greater than 20 nM.
In the case of COc1cc2ncc(-c3cccc(N)c3)n2cc1S(=O)(=O)C(C)(C)C [Example 36, 3-(6-(tert-butylsulfonyl)-7-methoxyimidazo[1,2-a]pyridin-3-yl)aniline], the IC50 [1] is reported as greater than 1000 nM and the IC50 [2, 3] is reported as greater than 20 nM.
Compound COc1cc2ncc(-c3cc(N)cc(S(C)(=O)=O)c3)n2cc1S(=O)(=O)C(C)(C)C [Example 37, 3-(6-(tert-butylsulfonyl)-7-methoxyimidazo[1,2-a]pyridin-3-yl)-5-(methylsulfonyl)aniline] has an IC50 [1] greater than 1000 nM and an IC50 [2, 3] greater than 20 nM.
In the case of COc1cc2ncc(-c3cc(F)cc(N)c3F)n2cc1S(=O)(=O)C(C)(C)C [Example 38, 3-(6-(tert-butylsulfonyl)-7-methoxyimidazo[1,2-a]pyridin-3-yl)-2,5-difluoroaniline], the IC50 [1] is reported as 50 to 250 nM and the IC50 [2] is reported as 1 to 2.5 nM.
COc1cc2ncc(-c3ccc(OC(F)F)c(N)c3)n2cc1S(=O)(=O)C(C)(C)C [Example 39, 5-(6-(tert-butylsulfonyl)-7-methoxyimidazo[1,2-a]pyridin-3-yl)-2-(difluoromethoxy)aniline] gave an IC50 [1] of 50 to 250 nM and an IC50 [2] of 2.5 to 20 nM.
COc1cc2ncc(-c3cc(F)c(N)c(N)c3F)n2cc1S(=O)(=O)C(C)(C)C [Example 40, 4-(6-(tert-butylsulfonyl)-7-methoxyimidazo[1,2-a]pyridin-3-yl)-3,6-difluorobenzene-1,2-diamine] gave an IC50 [1] of 250 to 1000 nM and an IC50 [2] of 2.5 to 20 nM.
COc1cc2ncc(-c3cc(N)cc(C#N)c3)n2cc1S(=O)(=O)C(C)(C)C [Example 41, 3-amino-5-(6-(tert-butylsulfonyl)-7-methoxyimidazo[1,2-a]pyridin-3-yl)benzonitrile] showed an IC50 [1] of 50 to 250 nM and an IC50 [2] of 2.5 to 20 nM.
For COc1cc2ncc(-c3cc(N)cc(OC(F)F)c3)n2cc1S(=O)(=O)C(C)(C)C [Example 42, 3-(6-(tert-butylsulfonyl)-7-methoxyimidazo[1,2-a]pyridin-3-yl)-5-(difluoromethoxy)aniline], the IC50 [1] was 250 to 1000 nM and the IC50 [2] was 2.5 to 20 nM.
Compound COc1cc2ncc(-c3cc(N)c(F)c(OC)c3)n2cc1S(=O)(=O)C(C)(C)C [Example 43, 5-(6-(tert-butylsulfonyl)-7-methoxyimidazo[1,2-a]pyridin-3-yl)-2-fluoro-3-methoxyaniline] has an IC50 [1] of 50 to 250 nM and an IC50 [2] of 2.5 to 20 nM.
With COc1cc2ncc(-c3cc(N)c(F)c(F)c3)n2cc1S(=O)(=O)C(C)(C)C [Example 44, 5-(6-(tert-butylsulfonyl)-7-methoxyimidazo[1,2-a]pyridin-3-yl)-2,3-difluoroaniline] the IC50 [1] was 50 to 250 nM and the IC50 [2] was 2.5 to 20 nM.
COc1ccn2c(-c3cc(F)nc(F)c3)cnc2c1 [Example 45, 3-(2,6-difluoropyridin-4-yl)-7-methoxyimidazo[1,2-a]pyridine] was tested, and the IC50 [1] was greater than 1000 nM and the IC50 [2, 3] was greater than 20 nM.
COc1cc(N)cc(-c2cnc3cc(OC)c(S(=O)(=O)C(C)(C)C)cn23)c1 [Example 46, 3-(6-(tert-butylsulfonyl)-7-methoxyimidazo[1,2-a]pyridin-3-yl)-5-methoxyaniline] showed an IC50 [1] of 50 to 250 nM and an IC50 [2] of 2.5 to 20 nM.
COc1cc2ncc(-c3cc(N)c(OC)c(OC)c3)n2cc1S(=O)(=O)C(C)(C)C [Example 47, 5-(6-(tert-butylsulfonyl)-7-methoxyimidazo[1,2-a]pyridin-3-yl)-2,3-dimethoxyaniline] gave an IC50 [1] greater than 1000 nM and an IC50 [2] of 2.5 to 20 nM.
COc1cc2ncc(-c3cc(C)c(F)c(N)c3)n2cc1S(=O)(=O)C(C)(C)C [Example 48, 5-(6-(tert-butylsulfonyl)-7-methoxyimidazo[1,2-a]pyridin-3-yl)-2-fluoro-3-methylaniline] showed an IC50 [1] greater than 1000 nM and an IC50 [2, 3] greater than 20 nM.
COCc1cc(N)cc(-c2cnc3cc(OC)c(S(=O)(=O)C(C)(C)C)cn23)c1 [Example 49, 3-(6-(tert-butylsulfonyl)-7-methoxyimidazo[1,2-a]pyridin-3-yl)-5-(methoxymethyl)aniline] showed an IC50 [1] of 250 to 1000 nM and an IC50 [2, 3] greater than 20 nM.
COc1cc2ncc(-c3cnc(OC(F)F)c(N)c3)n2cc1S(=O)(=O)C(C)(C)C [Example 50, 5-(6-(tert-butylsulfonyl)-7-methoxyimidazo[1,2-a]pyridin-3-yl)-2-(difluoromethoxy)pyridin-3-amine] was tested, and the IC50 [1] was greater than 1000 nM and the IC50 [2, 3] was greater than 20 nM.
COc1cc2ncc(-c3cc(N)c(OC)c(C#N)c3)n2cc1S(=O)(=O)C(C)(C)C [Example 51, 3-amino-5-(6-(tert-butylsulfonyl)-7-methoxyimidazo[1,2-a]pyridin-3-yl)-2-methoxybenzonitrile] gave an IC50 [1] greater than 1000 nM and an IC50 [2, 3] greater than 20 nM.
In the case of COc1cc2ncc(-c3cc(F)c(OC)c(N)c3F)n2cc1S(=O)(=O)C(C)(C)C [Example 52, 3-(6-(tert-butylsulfonyl)-7-methoxyimidazo[1,2-a]pyridin-3-yl)-2,5-difluoro-6-methoxyaniline], the IC50 [1] is reported as 250 to 1000 nM and the IC50 [2] is reported as 2.5 to 20 nM.
COc1cc(-c2cnc3cc(OC)c(S(=O)(=O)C(C)(C)C)cn23)cc(N)n1 [Example 53, 4-(6-(tert-butylsulfonyl)-7-methoxyimidazo[1,2-a]pyridin-3-yl)-6-methoxypyridin-2-amine] was tested, and the IC50 [1] was 50 to 250 nM and the IC50 [2] was 2.5 to 20 nM.
For COc1cc2ncc(-c3cnc(OC)c(N)c3)n2cc1S(=O)(=O)C(C)(C)C [Example 54, 5-(6-(tert-butylsulfonyl)-7-methoxyimidazo[1,2-a]pyridin-3-yl)-2-methoxypyridin-3-amine], the IC50 [1] was greater than 1000 nM and the IC50 [2, 3] was greater than 20 nM.
With COc1cc2ncc(-c3cc(C)c(OC)c(Cl)n3)n2cc1S(=O)(=O)C(C)(C)C [Example 55, 6-(tert-butylsulfonyl)-3-(6-chloro-5-methoxy-4-methylpyridin-2-yl)-7-methoxyimidazo[1,2-a]pyridine] the IC50 [1] was greater than 1000 nM and the IC50 [2, 3] was greater than 20 nM.
With COc1cc2ncc(-c3cc(F)c(OC)c(C#N)c3)n2cc1S(=O)(=O)C(C)(C)C [Example 56, 5-(6-(tert-butylsulfonyl)-7-methoxyimidazo[1,2-a]pyridin-3-yl)-3-fluoro-2-methoxybenzonitrile] the IC50 [1] was greater than 1000 nM and the IC50 [2, 3] was greater than 20 nM.
Compound COc1cc2ncc(-c3cc(F)c(OC)c(F)c3)n2cc1S(=O)(=O)C(C)(C)C [Example 57, 6-(tert-butylsulfonyl)-3-(3,5-difluoro-4-methoxyphenyl)-7-methoxyimidazo[1,2-a]pyridine] has an IC50 [1] greater than 1000 nM and an IC50 [2, 3] greater than 20 nM.
For COc1cc2ncc(-c3cc(F)c(OC)c(OC)c3)n2cc1S(=O)(=O)C(C)(C)C [Example 58, 6-(tert-butylsulfonyl)-3-(3-fluoro-4,5-dimethoxyphenyl)-7-methoxyimidazo[1,2-a]pyridine], the IC50 [1] was greater than 1000 nM and the IC50 [2] was 2.5 to 20 nM.
With COc1cc2ncc(-c3cc(F)c(OC)c(CCO)c3)n2cc1S(=O)(=O)C(C)(C)C [Example 59, 2-(5-(6-(tert-butylsulfonyl)-7-methoxyimidazo[1,2-a]pyridin-3-yl)-3-fluoro-2-methoxyphenyl)ethan-1-ol] the IC50 [1] was 250 to 1000 nM and the IC50 [2] was 2.5 to 20 nM.
